Our source for the IC50 values is patent US6683103B2, “Sulfonamides for treatment of endothelin-mediated disorders” (Texas Biotechnology Corporation, priority 1997, dated 2004).

Read-outs that look alike come from different tables or passages of the source.

The target of experiment [1] is T1, human ETA receptors (Homo sapiens, UniProt P25101).
T1 construct: endogenous in cells; host or cells: TE 671 cells (ATCC HTB 139)
T1 sequence (P25101 21-427): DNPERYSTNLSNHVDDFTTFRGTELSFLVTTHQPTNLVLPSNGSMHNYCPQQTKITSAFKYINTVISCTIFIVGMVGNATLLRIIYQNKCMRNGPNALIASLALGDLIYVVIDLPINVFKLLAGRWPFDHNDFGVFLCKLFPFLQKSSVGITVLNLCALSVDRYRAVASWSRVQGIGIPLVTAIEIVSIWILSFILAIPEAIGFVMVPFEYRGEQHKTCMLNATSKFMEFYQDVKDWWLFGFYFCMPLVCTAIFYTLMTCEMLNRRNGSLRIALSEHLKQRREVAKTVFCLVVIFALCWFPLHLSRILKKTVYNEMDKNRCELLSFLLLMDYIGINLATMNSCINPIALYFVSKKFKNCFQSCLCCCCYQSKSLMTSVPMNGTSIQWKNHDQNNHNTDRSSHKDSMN
The experiment can be described thus: Binding Test #1: inhibition of 125I-ET-1 binding to ETA receptors (TE 671 cell membranes). Particulars: read-out: ETA. The text has this:
(§1) Compounds that are potential endothelin antagonists are identified by testing their ability to compete with ^125I-labeled ET-1 for binding to human ETA receptors or ETB receptors present on isolated cell membranes. The effectiveness of the test compound as an antagonist or agonist of the biological tissue response of endothelin can also be assessed by measuring the effect on endothelin induced contraction of isolated rat thoracic aortic rings. The ability of the compounds to act as antagonists or agonists for ETB receptors can be assess by testing the ability of the compounds are to inhibit endothelin-1 induced prostacyclin release from cultured bovine aortic endothelial cells.
A. Endothelin Binding Inhibition—Binding Test #1: Inhibition of Binding to ETA Receptors
TE 671 cells (ATCC Accession No. HTB 139) express ETA receptors. These cells were grown to confluence in T-175 flasks. Cells from multiple flasks were collected by scraping, pooled and centrifuged for 10 min at 190×g. The cells were resuspended in phosphate buffered saline (PBS) containing 10 mM EDTA using a Tenbroeck homogenizer. The suspension was centrifuged at 4° C. at 57,800×g for 15 min, the pellet was resuspended in 5 ml of buffer A (5 mM HEPES buffer, pH 7.4 containing aprotinin (100 KIU/ml)) and then frozen and thawed once. 5 ml of Buffer B (5 mM HEPES Buffer, pH 7.4 containing 10 mM MnCl2 and 0.001% deoxyribonuclease Type 1) was added, the suspension mixed by inversion and then incubated at 37° C. for 30 minutes. The mixture was centrifuged at 57,800×g as described above, the pellet washed twice with buffer A and then resuspended in buffer C (30 mM HEPES buffer, pH 7.4 containing aprotinin (100 KIU/ml) to give a final protein concentration of 2 mg/ml and stored at −70° C. until use.
The membrane suspension was diluted with binding buffer (30 mM HEPES buffer, pH 7.4 containing 150 mM NaCl, 5mM MgCl2, 0.5% Bacitracin) to a concentration of 8 μg/50 μl. ^125I-endothelin-1 (3,000 cpm, […]) was added to 50 μL of either: (A) endothelin-1 (for non specific binding) to give a final concentration 80 nM); (B) binding buffer (for total binding); or (C) a test compound (final concentration 1 nM to 100 μM). The membrane suspension (50 μL), containing up to 8 μg of membrane protein, was added to each of (A), (B), or (C). Mixtures were shaken, and incubated at 4° C. for 16-18 hours, and then centrifuged at […] for 25 min at 2,500×g. Alternatively, the incubation was conducted at 24° C. […] This, must be kept in mind when comparing IC50 concentrations among compounds provided herein.
The supernatant, containing unbound radioactivity, was decanted and the pellet counted on a Genesys multiwell gamma counter. The degree of inhibition of binding (D) was calculated according to the following equation: [formula]
Each test was generally performed in triplicate.

Experiment [2] concerns the target T2, human ETB receptor (Homo sapiens, UniProt P24530).
T2 construct: expressed in transfected cells; host or cells: COS7 cells
T2 sequence (P24530 27-442): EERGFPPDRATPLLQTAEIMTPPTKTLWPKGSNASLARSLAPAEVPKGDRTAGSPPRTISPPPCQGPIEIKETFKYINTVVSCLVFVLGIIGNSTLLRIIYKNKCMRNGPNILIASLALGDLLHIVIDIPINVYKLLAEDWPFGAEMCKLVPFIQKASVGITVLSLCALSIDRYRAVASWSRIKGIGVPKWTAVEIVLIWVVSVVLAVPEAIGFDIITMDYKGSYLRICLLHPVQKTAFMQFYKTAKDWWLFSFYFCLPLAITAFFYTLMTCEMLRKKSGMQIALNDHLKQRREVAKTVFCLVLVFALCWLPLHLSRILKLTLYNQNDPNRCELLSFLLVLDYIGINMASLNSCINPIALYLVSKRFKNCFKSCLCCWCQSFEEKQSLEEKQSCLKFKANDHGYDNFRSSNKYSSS
The experiment is described as follows: Binding Test #2: inhibition of 125I-ET-1 binding to ETB receptors (transfected COS7 cell membranes). The following applies: read-out: ETB.
Excerpt: as §1
B. Endothelin Binding Inhibition—Binding Test #2: Inhibition of Binding to ETB Receptors
COS7 cells were transfected with DNA encoding the ETB receptor, The resulting cells, which express the human ETB receptor, were grown to confluence in T-150 flasks. Membrane was prepared as described above. The binding assay was performed as described above using the membrane preparation diluted with binding buffer to a concentration of 1 μg/50 μl.
Briefly, the COS7 cells, described above, that had been transfected with DNA encoding the ETB receptor and express the human ETB receptor on their surfaces were grown to confluence in T-1 75 flasks. Cells from multiple flasks were collected by scraping, pooled and centrifuged for 10 min at 190×g. The cells were resuspended in phosphate buffered saline (PBS) containing 10 mM EDTA using a Tenbroeck homogenizer. The suspension was centrifuged at 4° C. 57,800 X g for 15 min, the pellet was resuspended in 5 ml of buffer A (5mM HEPES buffer, pH 7.4 containing aprotinin (100 KIU/ml)) and then frozen and thawed once. Five ml of Buffer B (5 mM HEPES Buffer, pH 7.4 containing 10 mM MnCl2 and 0.001% deoxyribonuclease Type 1) was added, the suspension mixed by inversion and then incubated at 37° C. for 30 minutes. The mixture was centrifuged at 57,800×g as described above, the pellet washed twice with buffer A and then resuspended in buffer C (30 mM HEPES buffer, pH 7.4 containing aprotinin (100 KIU/ml) to give a final protein concentration of 2 mg/ml.
The binding assay was performed as described above using the membrane preparation diluted to give 1 μg/50 μl of binding buffer.

[3] abbreviates: Table 2, † incubation at 24° C.
The mark [4] stands for this setting: Table 1, † incubation at 24° C.

As for `Cc1noc(NS(=O)(=O)c2cc(Cl)c(Cl)s2)c1Br` [N-(4-Bromo-3-methyl-5-isoxazolyl)-4,5-dichlorothiophene-2-sulfonamide], the IC50 in experiment [1] (Table 1, incubation at 4° C.) is ~450 nM; in experiment [2] (Table 1, incubation at 4° C.) it was ~4900 nM.
The matching figures for `Cc1noc(NS(=O)(=O)c2c(Cl)sc(Cl)c2Br)c1Br` [N-(4-Bromo-3-methyl-5-isoxazolyl)-4-bromo-2,5-dichlorothiophene-3-sulfonamide]: ~280 nM and 10400 nM.
The matching figures for `Cc1noc(NS(=O)(=O)c2ccc(-c3ccccn3)s2)c1Br` [N-(4-Bromo-3-methyl-5-isoxazolyl)-5-(2-pyridyl)thiophene-2-sulfonamide]: 3840 nM and 2700 nM.
`Cc1noc(NS(=O)(=O)c2ccc(CNC(=O)c3ccc(Cl)cc3)s2)c1Br` [N-(4-Bromo-3-methyl-5-isoxazolyl)-5-(4-chlorobenzamidomethyl)thiophene-2-sulfonamide]: the IC50 in experiment [1] (Table 1, incubation at 4° C.) came to 311 nM; in experiment [2] (Table 1, incubation at 4° C.), 2570 nM.
For `Cc1noc(NS(=O)(=O)c2ccc(S(=O)(=O)c3ccccc3)s2)c1Br` [N-(4-Bromo-3-methyl-5-isoxazolyl)-5-benzenesulfonylthiophene-2-sulfonamide] the same measures were 570 nM and 333 nM.
For `Cc1noc(NS(=O)(=O)c2sc3ccc(Cl)cc3c2C)c1Br` [N-(4-Bromo-3-methyl-5-isoxazolyl)-5-chloro-3-methylbenzo[b]thiophene-2-sulfonamide] the same measures were 960 nM and 1630 nM.
As to `Cc1noc(NS(=O)(=O)c2ccc(-c3cc(C(F)(F)F)n(C)n3)s2)c1Br` [N-(4-Bromo-3-methyl-5-isoxazolyl)-5-{3-[1-methyl-5-(trifluoromethyl)pyrazolyl]}thiophene-2-sulfonamide], the IC50 in experiment [1] (Table 1, incubation at 4° C.) was ~6700 nM; in experiment [2] (Table 1, incubation at 4° C.), ~360 nM.
For `Cc1c(C(F)(F)F)noc1NS(=O)(=O)c1ccc(-c2ccccc2)cc1` [N-(4-Methyl-3-trifluoromethyl-5-isoxazolyl)-4-biphenylsulfonamide], the IC50 was 19000 nM in experiment [1] (Table 2, incubation at 4° C.); 1700 nM in experiment [2] (Table 2, incubation at 4° C.); 5620 nM in experiment [2] (setting [3]).
On to `CCCCCCCCCCCCCc1c(C(F)(F)F)noc1NS(=O)(=O)c1ccc(-c2ccccc2)cc1` [N-(4-Tridecyl-3-trifluoromethyl-5-isoxazolyl)-4-biphenylsulfonamide], for which the IC50 came to 34000 ± 9000 nM in experiment [1] (Table 2, incubation at 4° C.); 33000 nM in experiment [1] (setting [3]); 990 ± 200 nM in experiment [2] (Table 2, incubation at 4° C.); 950 nM in experiment [2] (setting [3]).
Consider `Cc1noc(NS(=O)(=O)c2cccs2)c1Br` [N-(4-bromo-3-methyl-5-isoxazolyl)2-thiophenesulfonamide], for which the IC50 was found to be 95 ± 70 nM in experiment [1] (Table 1, incubation at 4° C.) and 27700 ± 15000 nM in experiment [2] (Table 1, incubation at 4° C.).
In the case of `Cc1noc(NS(=O)(=O)c2cc3ccccc3n2C)c1Br` [N-(4-bromo-3-methyl-5-isoxazolyl)-1-methylindole-2-sulfonamide], the figures for the IC50 in experiment [1] (setting [4]) and in experiment [2] (setting [4]) were 77000 nM and ~100000 nM, respectively.
For the compound `Cc1noc(NS(=O)(=O)c2c(C)sc(C)c2-c2ccccc2)c1Br` [N-(4-bromo-3-methyl-5-isoxazolyl)-2,5-dimethyl-4-phenylthiophene-3-sulfonamide], the IC50 was 1400 nM in experiment [1] (Table 1, incubation at 4° C.) and ~100000 nM in experiment [2] (Table 1, incubation at 4° C.).
As to `Cc1cc(S(=O)(=O)Nc2onc(C)c2Br)c(C)o1` [N-(4-bromo-3-methyl-5-isoxazolyl)-2,5-dimethylfuran-3-sulfonamide], the IC50 is 460 nM in experiment [1] (Table 1, incubation at 4° C.) and 36500 nM in experiment [2] (Table 1, incubation at 4° C.).
With `Cc1ccc(C=CCc2sccc2S(=O)(=O)Nc2onc(C)c2Br)c(C)c1` [N-(4-bromo-3-methyl-5-isoxazolyl)-2-(2,4-dimethylcinnamyl)thiophene-3-sulfonamide], the IC50 in experiment [1] (setting [4]) is 166 nM; in experiment [2] (setting [4]) it was 2970 nM.
`CCCCc1ccc(NC(=O)c2sccc2S(=O)(=O)Nc2onc(C)c2Br)cc1` [N-(4-bromo-3-methyl-5-isoxazolyl)-2-(4-butylphenyl)aminocarbonylthiophene-3-sulfonamide]: the IC50 in experiment [1] (Table 1, incubation at 4° C.) came to 44 nM; in experiment [2] (Table 1, incubation at 4° C.), 2840 nM.
For `Cc1noc(NS(=O)(=O)c2ccsc2C(=O)Nc2ccc(C(C)(C)C)cc2)c1Br` [N-(4-bromo-3-methyl-5-isoxazolyl)-2-(4-t-butylphenyl)aminocarbonylthiophene-3-sulfonamide] the same measures were 11 nM and 2820 nM.
Take `Cc1noc(NS(=O)(=O)c2ccsc2C(=O)Nc2ccccc2)c1Br` [N-(4-bromo-3-methyl-5-isoxazolyl)-2-(N-phenylaminocarbonyl)thiophene-3-sulfonamide]: the IC50 in experiment [1] (Table 1, incubation at 4° C.) was found to be 5.4 nM; in experiment [2] (Table 1, incubation at 4° C.), 18800 nM.
The matching figures for `COC(=O)c1sccc1S(=O)(=O)Nc1onc(C)c1Br` [N-(4-bromo-3-methyl-5-isoxazolyl)-2-(carbomethoxy)thiophene-3-sulfonamide]: 20.8 nM and 98100 nM.
As to `Cc1cc2c(cc1C=CCc1sccc1S(=O)(=O)Nc1onc(C)c1Br)OCO2` [N-(4-bromo-3-methyl-5-isoxazolyl)-2-[2-methyl-4,5-(methylenedioxy)cinnamyl]thiophene-3-sulfonamide], the IC50 was 80.4 nM in experiment [1] (setting [4]) and 3280 nM in experiment [2] (setting [4]).
The matching figures for `Cc1cc2c(cc1CCc1sccc1S(=O)(=O)Nc1onc(C)c1Br)OCO2` [N-(4-bromo-3-methyl-5-isoxazolyl)-2-[2-methyl-4,5-(methylenedioxy)phenethyl]thiophene-3-sulfonamide]: 61.9 nM and 8900 nM.
